In BindingDB's records for patent US20240109853 (Shanghai Yao Yuan Biotechnology Co., 2024):
Values joined by “and” are separate entries in the source; they are usually repeats but may differ in a detail not shown here. Identical values can stand only once.

biological target: Alpha-protein kinase 1 (Homo sapiens, UniProt Q96QP1); experiment: ALPK1 In Vitro Kinase Assay
Description: ALPK1 kinase activity was measured in an in vitro assay using ADP-Heptose as the ALPK1 ligand and activator of its kinase activity and TIFA protein as the ALPK1 phosphorylation substrate. Since phosphorylated TIFA proteins oligomerize, Homogeneous Time-Resolved Fluorescence (HTRF) was used to measure protein: protein interaction between HA-tagged TIFA proteins as an indicator of TIFA phosphorylation. In brief, dose-response studies were performed with […] in 384-well assay plates. Each well contained 0.1 mg TIFA, ALPK1 (2 nM final concentration in reaction mixture) and kinase buffer (100 mM of HEPES pH 7.4, 4 mM DTT, 40 mM MgCl2, 20 mM of β-Glycerol phosphate disodium salt, 0.4 mM of Na3VO4, 0.16 mg/mL). Titrations of the test compounds were prepared in dimethylsulphoxide (DMSO). The reaction was initiated by addition of ATP and ADP-Heptose.

Chain of Alpha-protein kinase 1 (Q96QP1 whole entry): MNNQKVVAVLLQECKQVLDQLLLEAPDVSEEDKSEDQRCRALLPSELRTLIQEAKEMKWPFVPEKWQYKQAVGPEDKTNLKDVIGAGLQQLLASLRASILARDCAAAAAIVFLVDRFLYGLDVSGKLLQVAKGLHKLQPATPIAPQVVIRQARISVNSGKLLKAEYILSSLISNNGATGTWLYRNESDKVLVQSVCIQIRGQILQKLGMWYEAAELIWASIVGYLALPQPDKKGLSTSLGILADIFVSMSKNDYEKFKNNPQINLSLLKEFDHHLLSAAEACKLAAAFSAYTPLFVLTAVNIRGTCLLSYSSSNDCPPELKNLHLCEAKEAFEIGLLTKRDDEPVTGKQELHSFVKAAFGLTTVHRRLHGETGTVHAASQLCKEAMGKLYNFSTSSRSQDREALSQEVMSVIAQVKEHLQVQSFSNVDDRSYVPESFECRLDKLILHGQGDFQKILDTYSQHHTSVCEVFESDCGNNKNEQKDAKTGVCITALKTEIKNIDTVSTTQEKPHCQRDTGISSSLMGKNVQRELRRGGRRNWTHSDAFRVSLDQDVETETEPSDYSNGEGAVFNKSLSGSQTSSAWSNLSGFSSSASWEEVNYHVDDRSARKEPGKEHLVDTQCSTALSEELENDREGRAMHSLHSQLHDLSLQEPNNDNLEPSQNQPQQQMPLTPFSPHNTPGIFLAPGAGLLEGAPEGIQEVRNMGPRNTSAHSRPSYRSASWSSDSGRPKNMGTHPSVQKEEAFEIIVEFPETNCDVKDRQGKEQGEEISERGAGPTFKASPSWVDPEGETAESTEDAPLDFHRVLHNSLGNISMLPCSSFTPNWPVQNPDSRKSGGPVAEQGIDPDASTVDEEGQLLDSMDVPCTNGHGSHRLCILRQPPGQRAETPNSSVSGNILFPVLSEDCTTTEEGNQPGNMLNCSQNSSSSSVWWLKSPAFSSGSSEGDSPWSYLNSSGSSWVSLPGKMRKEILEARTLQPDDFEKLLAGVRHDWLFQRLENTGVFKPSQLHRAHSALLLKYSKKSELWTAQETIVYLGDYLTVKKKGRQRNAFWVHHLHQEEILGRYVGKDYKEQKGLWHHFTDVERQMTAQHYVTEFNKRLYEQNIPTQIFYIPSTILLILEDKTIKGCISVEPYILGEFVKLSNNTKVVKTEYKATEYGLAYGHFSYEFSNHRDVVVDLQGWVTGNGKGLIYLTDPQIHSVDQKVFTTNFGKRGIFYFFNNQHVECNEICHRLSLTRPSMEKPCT

Row | SMILES | IC50
1 | COc1ccc(C(C)(C)c2csc(NC(=O)c3ccc(N4CC5CC(C4)N5)cc3)n2)cc1 [US20240109853, Compound B048] | 73 nM
2 | C#C[C@](C)(c1ccc(Cl)cc1)c1nc(NC(=O)NCCO)sc1Cl [US20240109853, Compound A248] | 1290 nM
3 | CC(C)(c1ccc(Br)cc1)c1csc(NC(=O)NCc2ccc(C3CCNCC3)c(F)c2)n1 [US20240109853, Compound A222] | 56 nM
4 | CC(C)(c1ccc(Br)cc1)c1csc(NC(=O)NCc2ccc(N3CCNCC3)c(Br)c2)n1 [US20240109853, Compound A097] | 87 nM
5 | C#C[C@@](C)(c1ccc(Cl)cc1)c1csc(NC(=O)NC(C)CO)n1 (some centres not stated) [US20240109853, Compound A312] | 545 nM and 614 nM
6 | C#CC(C)(c1ccc(Cl)cc1)c1csc(NC(=N)N)n1 (configuration not stated) [US20240109853, Compound A276] | 345 nM
7 | C#C[C@@](C)(c1ccc(Cl)cc1)c1csc(NC(=O)NCC(C)O)n1 (some centres not stated) [US20240109853, Compound A317] | 85 nM and 156 nM
8 | C#C[C@](C)(c1ccc(Cl)cc1)c1csc(NC(=O)NC(C)CO)n1 (some centres not stated) [US20240109853, Compound A314] | 261 nM and 81 nM
9 | C#C[C@](C)(c1ccc(Cl)cc1)c1csc(NC(=O)NCC(C)O)n1 (some centres not stated) [US20240109853, Compound A316] | 421 nM and 534 nM
10 | C#CC(C)(c1ccc(Cl)cc1)c1csc(NC(=O)N2CC(N)C2)n1 (configuration not stated) [US20240109853, Compound A275] | 503 nM and 246 nM
11 | COc1ccc(C(C)(C)c2csc(NC(=O)NCc3cc(F)c(C4CCNCC4)c(F)c3)n2)cc1 [US20240109853, Compound A151] | 43 nM
12 | C#C[C@@](C)(c1ccc(Cl)cc1)c1nc(NC(=O)NCCO)sc1Cl [US20240109853, Compound A247] | 408 nM
